Consider three compounds from patent US20110142866A1, “PEPTIDE ANALOGUES AND CONJUGATES THEREOF” (Eldrug S.A., priority 2007, published 2011).

For data set [1], the system named is MOG35-55 induced EAE. Nature of the data set: Chronic MOG35-55 EAE, clinical evaluation. It counts as in vivo, C57BL/6 mice. Particulars: for overall clinical effect on MOG35-55 EAE: co-injection at disease induction at 1:1 ratio.
Another data set is described as follows: Stability to proteolysis. The format is in vitro ADME. Particulars: compared to linear counterparts.
The subject of data set [2] is MOG35-55 induced EAE. Nature of the data set: MOG35-55 EAE, spinal cord histopathology. The format is in vivo, C57BL/6 mice. As to the method:
On day 17 (acute phase of EAE) and day 46 post-EAE-induction (chronic phase of EAE) animals were subjected to transcardial perfusion with 4% paraformaldehyde in PBS. Brains and spinal cords were removed, post-fixed in the same fixative for approximately 20 hours, routinely processed for paraffin embedding and sectioned at […]. Sections from animals of acute and chronic phases of the disease, were then stained using the following methods: a) a modified Bielschowsky silver impregnation staining method combined with haematoxylin, for the simultaneous evaluation of axonal injury, axonal loss and inflammatory processes in EAE as previously described in detail [Lourbopoulos et, al., 2007]; b) Luxol fast blue staining counterstained with Nuclear fast Red for the detection of demyelinating areas within the CNS of animals, using routine histopathological protocols. Pathological evaluation was performed under a light microscope (Olympus Axioplan-2) by two blinded investigators and photos were taken using a CCD camera (Nikon). Five randomly selected longitudinal sections per tissue (brains and spinal cords) were evaluated as follows: for each animal, each section was evaluated under 20× or 40× optical fields (depending on the object of study) so as to cover the entire area of the section. […] Depending on the object of interest the following scales were used to perform the evaluation: (a) For axonal injury (AI), the following scale was used: 0=no AI, 1+=scattered dystrophic injured axons without any spheroid or ovoid, 2+=mild AI with the presence of at least one spheroid or ovoid, 3+=moderate AI, 4+=severe AI; generally injured axons were defined and identified as spheroids and ovoids (which represent axonotmesis), and dilated (dystrophic) axons which represent injured axons not yet being cut. (b) For axonal loss (AL): 0=normal axonal density, 1+=<25% AL, 2+=mild AL (26-50%), 3+=moderate to severe (51-75%) AL, 4+=severe AL (>75%); various degrees of decreased density of axons was attributed to axonal loss and evaluated accordingly. (c) For infiltrations: number of infiltrating cells per optical field and number of infiltrating cells per infiltration. (d) Demyelination was evaluated under 40× optical fields; using a prefrontal grid, we measured the area of demyelination and the total area of white matter in each optical field and then subtracted the % of demyelination present in each optical field.

In data set [3] the test system is IL-10 secretion by T cells. Nature of the data set: IL-10 ELISpot of spleen cells from immunized mice. Set-up: key to IL-10: −: negative; +/−: very weak; +: weak; ++: moderate; +++: strong. The format is in vivo, SJL/J mice. Conditions: for IL-10: Table 2, peptide analogues conjugated to reduced mannan-KLH; for IL-10 production by T cells (in words): peptide conjugated to reduced mannan, two injections. As for the experimental part: Female 6-8 week old SJL/J mice used in all experiments, were purchased from Walter and Eliza Hall Institute (VIC Australia) and housed at the Biological Research Laboratory at Burnet Institute at Austin, Heidelberg, Australia. SJL/J mice were immunized twice on days 0, 14 intradermally (base of tail) with 50 μg MBP83-99 peptide analogue-KLH-reduced mannan.
ELISpot analyses specific T cell responses to antigens by detecting the secretion of specific cytokines. Spleen cells from immunized SJL/J mice were isolated 14 days after immunization and assessed by ELISpot for IFN-γ, IL-4 or IL-10 secretion by T cells. IFN-γ ELISpot assay was performed on MultiScreen-IP Filter Plate (MAIP S4510) with hydrophobic PVDF filters (Millipore, UK) while IL-4 and IL-10 ELISpot was performed on MultiScreen-HA Filter Plate (MAHA S4510) with mixed cellulose esters filters (Millipore, UK). MAIP S4510 plates were pre-wet with 50 μl of 70% ethanol, washed 5 times with 200 μl sterile PBS and coated with 70 μl of 5 μg/ml anti-IFN-γ capture antibody, AN18 (Mabtech, Australia) in PBS and left to incubate at 4° C. O/N. While 70 μl of 5 μg/ml anti-IL-4 and anti-IL-10 capture antibody (Mabtech, Australia) was added directly to MAHA S4510 plates and incubated at 4° C. O/N without 70% ethanol treatment. Following 5 washes with PBS, plates were blocked by adding 200 μl of culture media (supplemented with 2.5% FCS) and incubated for 2 hours at 37° C. The blocking media was discarded and 10 μg/ml recall peptides (MBP83-99 peptide analogues not conjugated to KLH-reduced mannan) were added into each defined well. Con A (1.0 μg/ml; IL-4 and IFN-γ) or LPS (1.0 μg/ml; IL-10) were used as an internal positive controls and no peptide was used as negative control. Triplicate wells were set up for each condition. 5×10^5 spleen cells in 100 μl culture media were seeded into each well and incubated for 18 hours for IFN-γ, 24 hours for IL-4 and 48 hours for IL-10 at 37° C. Plates were washed 5 times PBS/0.05% Tween 20 and 5 times PBS and incubated for 2 hours at RT with anti-murine IFN-γ, IL-4 or IL-10 monoclonal antibody-biotin. Plates were washed and streptavidin-ALP was added at 1.0 μg/ml and incubated for 2.0 hours at RT. Spots of activity were detected using a colorimetric AP kit (Biorad, Hercules, Calif. USA) and counted using an AID ELISpot plate reader (Autoimmun Diagnostika GmbH, Germany). Data are presented as mean spot forming units (sfu) per 0.5×10^6 cells +/−standard error of the mean (SEM).

Entries after “also recorded” stand apart in the source; their conditions may differ.

As to `CC[C@H](C)[C@@H]1NC(=O)[C@H](CC(N)=O)NC(=O)[C@H](CCCCN)NC(=O)[C@H](Cc2ccccc2)NC(=O)[C@H](Cc2ccccc2)NC(=O)[C@H](Cc2c[nH]cn2)NC(=O)[C@H](C(C)C)NC(=O)[C@H](C(C)C)NC(=O)[C@@H]2CCCN2C(=O)[C@H](CC(N)=O)NC(=O)[C@H](CCC(=O)O)NC(=O)[C@@H]2CCCN2C(=O)[C@H]([C@@H](C)O)NC(=O)[C@H](CCCNC(=N)N)NC(=O)[C@@H]2CCCN2C(=O)[C@H]([C@@H](C)O)NC(=O)[C@H](C(C)C)NC1=O` [cyclo(83-99)MBP83-99, cyclo(83-99)E N P V V H F F K N I V T P R T P], the “mean day of disease onset” value is recorded as 12.00±0.81 with MOG35-55 induced EAE [1] (acute phase experiment) and 17.00±11.74 in the data set on MOG35-55 induced EAE [1] (chronic phase experiment). In addition, the “mean clinical score vs control” value with MOG35-55 induced EAE [1] (acute phase, days 15, 16 and 17) is given as “statistical significant different”; in the data set on MOG35-55 induced EAE [1] (chronic phase, entire observation period) it was “lower mean clinical score”. Besides, the “mean Areas Under the Curve (mAUC)” value in the data set with MOG35-55 induced EAE [1] (acute phase, sacrifice day 17, 300 μg co-injected 1:1 with MOG35-55) is reported as 13.32±2.55; with MOG35-55 induced EAE [1] (chronic phase, day 46), 51.08±36.58. In addition, the “Mean Maximal Clinical Scores (MMS)” value in the data set on MOG35-55 induced EAE [1] (chronic phase, day 46) amounted to 2.375±1.45. Moreover, the “overall clinical effect on MOG35-55 EAE” value in the data set on MOG35-55 induced EAE [1] was “mild beneficial effect”; in the data set on MOG35-55 induced EAE [1] (listed as cyclic MBP83-99) it was “mild preventive benefit”. In the data set “Stability to proteolysis”, the “stability to the proteolysis” value is recorded as “increases stability to the proteolysis”. The results for the “demyelination of the white matter of spinal cords” value with MOG35-55 induced EAE [2] (acute phase) and in the data set with MOG35-55 induced EAE [2] (chronic phase) were 9.58±10.5% and 7.65±11.4%, respectively. In the data set on MOG35-55 induced EAE [2] (acute phase), the “effect on axonal injury vs control” value is “mild but statistical significant beneficial effect”. Also, the “effect on axonal loss vs control” value with MOG35-55 induced EAE [2] (acute phase) is listed as “mild effect”. Besides, the “infiltrating cells per optical field” value is 290.8±277.7 in the data set on MOG35-55 induced EAE [2] (acute phase) and 10.71±39.0 in the data set with MOG35-55 induced EAE [2] (chronic phase). Besides, the “inflammatory cells per infiltration” value in the data set with MOG35-55 induced EAE [2] (acute phase) is reported as 53.72±62.0; in the data set on MOG35-55 induced EAE [2] (chronic phase), 6.0±15.8. In addition, the “axonal injury per 20x field, % within GROUP” value was 14.3% in the data set on MOG35-55 induced EAE [2] (acute phase, score 0); 45.1% with MOG35-55 induced EAE [2] (acute phase, score 1+); 22.3% with MOG35-55 induced EAE [2] (acute phase, score 2+); 11.3% with MOG35-55 induced EAE [2] (acute phase, score 3+); 6.0% in the data set with MOG35-55 induced EAE [2] (acute phase, score 4+); 49.3% in the data set with MOG35-55 induced EAE [2] (chronic phase, score 0). In addition, the “axonal injury per 20x field, % within GROUP” value is 29.0% in the data set on MOG35-55 induced EAE [2] (chronic phase, score 1+); 13.0% in the data set with MOG35-55 induced EAE [2] (chronic phase, score 2+); 8.0% in the data set with MOG35-55 induced EAE [2] (chronic phase, score 3+); 0.7% in the data set on MOG35-55 induced EAE [2] (chronic phase, score 4+). The “axonal loss per 20x field, % within GROUP” value with MOG35-55 induced EAE [2] (acute phase, score 0) stood at 16.5%; in the data set with MOG35-55 induced EAE [2] (acute phase, score 1+), 36.1%; in the data set with MOG35-55 induced EAE [2] (acute phase, score 2+), 31.6%; in the data set with MOG35-55 induced EAE [2] (acute phase, score 3+) it was 12.0%; with MOG35-55 induced EAE [2] (acute phase, score 4+) it was 3.8%; with MOG35-55 induced EAE [2] (chronic phase, score 0) it was 51.4%. Moreover, the “axonal loss per 20x field, % within GROUP” value in the data set on MOG35-55 induced EAE [2] (chronic phase, score 1+) amounted to 26.8%; in the data set on MOG35-55 induced EAE [2] (chronic phase, score 2+), 10.9%; in the data set with MOG35-55 induced EAE [2] (chronic phase, score 3+) it was 10.1%; with MOG35-55 induced EAE [2] (chronic phase, score 4+) it was 0.7%. The “axonal injury vs control” value with MOG35-55 induced EAE [2] (chronic phase) was “not different”. Also, the “axonal loss vs control” value in the data set with MOG35-55 induced EAE [2] (chronic phase) is “less”.

On to “E N P V V H F F F N I V T P R T P (ENPVVHFFFNIVTPRTP) [[F^91]MBP83-99]”, for which, in data set [3], the IL-10 entry was “++” and the “IL-10 production by T cells (in words)” value is given as “moderate levels; also recorded: induced”.

Take “E N P V V H F F Y N I V T P R T P (ENPVVHFFYNIVTPRTP) [[Y^91]MBP83-99]”: in data set [3], the IL-10 result is given as “++” and the “IL-10 production by T cells (in words)” value is “moderate levels”.
